The source of these data is PubChem BioAssay (NCI).

Common to all, as to test: NCI anticancer screen, dose series, 48 h
For test [1], the system named is U251 CNS.
The test system of test [2] is HL-60(TB) leukemia.
In test [3] the test system is DLD-1 colon.
Test [4] concerns DMS 114 small cell lung.
For test [5], the system named is SF-539 CNS.
Test [6] has as its system NCI-H23 lung.
Test [7] relates to BT-549 breast.
Test [8] concerns SNB-75 CNS.
Test [9] has as its system HS 578T breast.

SMILES strings stand for the structures. Where “and” joins values, the source holds several entries; their conditions need not be identical. Equal entries are not always repeated.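 Five concentrations, 48 hours, 96-well plates. The concentration for 50% growth inhibition is given as GI50. TGI denotes the concentration required for complete inhibition of growth.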 A value given as a limit tells only on which side of the number the result lay.

For the molecule `COc1cc(/C=C(\C#N)c2ccccc2)cc(OC)c1`, the TGI in test [1], in [2], in test [3], in test [4], in [5] and in test [6] was > 100 µM in each case.

As to `O=S(=O)(Nc1cc(Sc2cccc3cccnc23)c(O)c2ccccc12)c1ccccc1`, the GI50 in test [7] was 2900 nM; in [8], 3230 nM; in test [1] it was 0.78 µM; in test [9] it was 3.27 µM; in [2] it was 487 nM; in test [5] it was 0.957 µM. In addition, in test [6], the GI50 is 1930 nM. For the same molecule, the TGI in [7] is 16 µM; in test [8], 16.9 µM; in test [1], 24.2 µM; in [9], 79.3 µM; in test [2], 4.69 µM; in test [5] it was 5.13 µM. For the same molecule, in test [6], the TGI was determined as 12.8 µM.

On to `CCn1c(SCc2ccc(C)cc2)nnc1-c1nn(-c2ccc(Cl)cc2Cl)c(-c2ccc(Cl)cc2)c1C`, for which the GI50 in test [7] was 1790 nM; in test [8], 2210 nM; in test [1], 0.925 µM; in test [9], 3.3 µM; in test [2], 1600 nM; in test [5] it was 3.02 µM. The GI50 in [6] was 2240 nM. Besides, the TGI was 5.75 µM in test [7]; 11.7 µM in test [8]; 11.8 µM in [1]; 18.4 µM in [9]; 5.47 µM in [2]; 11.8 µM in test [5]. This molecule displayed a TGI in [6] of 12.5 µM.

In the case of `CCc1nc(C(N)=O)c(Nc2ccc(N3CCC(N4CCN(C)CC4)CC3)c(OC)c2)nc1NC1CCOCC1`, the GI50 is 2610 nM and 521 nM and 3560 nM in [7]; 598 nM and 423 nM and 670 nM in test [8]; 5.9 µM and 1.28 µM and 7.96 µM in [1]; 1.56 µM and 0.514 µM and 1.85 µM in test [9]; 871 nM and 367 nM and 968 nM in test [2]; 5.46 µM and 1.05 µM and 7.87 µM in test [5]. The GI50 in test [6] was 1480 nM and 386 nM and 1200 nM. Also, the TGI in test [7] was 14.7 µM and > 2.84 µM and 17.3 µM; in [8], 5.4 µM and 1.91 µM and 7.74 µM; in [1], 19.8 µM and > 3.84 µM and 21.2 µM; in test [9] it was 9.48 µM and > 2.32 µM and 11.3 µM; in test [2] it was 11.3 µM and > 10 µM and 14.9 µM; in test [5], 20.3 µM and > 2.27 µM and 22.1 µM. In addition, in test [6], the TGI was 23.5 µM and > 2.7 µM and 24.7 µM.

As for `Br[C](Br)(Br)[Hg][c]1ccccc1`, the GI50 is 17200 nM in test [7]; 15800 nM in [8]; 13.9 µM in [1]; 23.2 µM in test [9]; 2280 nM in [2]; 18 µM in test [5]. Further, the GI50 in test [6] is 9300 nM. Besides, the TGI in [7] came out at 31.1 µM; in test [8], 32.6 µM; in [1], 27.6 µM; in [9] it was 66.2 µM; in test [2], 6.62 µM; in [5], 33.7 µM. Further, the TGI in [6] worked out at 23 µM.

For the molecule `CC/C=C\C[C@H]1C/C=C2/C(=O)C=C[C@@H]2C/C=C\CCCC(=O)O1`, the GI50 in test [7] was 674 nM; in test [8] it was 4020 nM; in test [1], 0.779 µM; in test [9], 4.34 µM; in test [2], 439 nM; in test [5], 0.855 µM. In addition, the GI50 in [6] was 1890 nM. The TGI is 3.22 µM in test [7]; 18 µM in test [8]; 2.49 µM in test [1]; 38.1 µM in test [9]; 3.3 µM in [2]; 2.67 µM in test [5]. Also, in test [6], the TGI turned out to be 5.03 µM.

Take `CC1=C[C@H]2c3c(c(O)c(O)c4oc(-c5ccccc5)cc(=O)c34)[C@H](c3cc(O)c(O)c4oc(-c5ccccc5)cc(=O)c34)[C@H]2C(C)(C)C1`: the GI50 in test [7] is 1580 nM; in test [8] it was 286 nM; in test [1], 0.415 µM; in [9] it was 0.412 µM; in test [2], 2330 nM; in [5], 0.364 µM. Moreover, the GI50 in test [6] is 375 nM. Moreover, the TGI was 8.59 µM in [7]; 5.76 µM in test [8]; 18.7 µM in test [1]; 10.2 µM in test [9]; 7.33 µM in test [2]; 7.52 µM in [5]. Besides, the TGI in test [6] came out at 2.56 µM.

As for `CN(C)C(=O)[C@H](O)[C@H](Cc1ccccc1)NC(=O)c1cc2cc(Cl)ccc2[nH]1`, the GI50 in test [7] was 22800 nM; in [8], 17400 nM; in [1] it was 17.9 µM; in test [9] it was 27.5 µM; in test [2], 19100 nM; in test [5], 20.2 µM. Moreover, the GI50 in test [6] was 25800 nM. Also, the TGI was 72.1 µM in test [7]; 65.6 µM in [8]; 42.5 µM in test [1]; > 100 µM in [9]; 54.1 µM in test [2]; 43.3 µM in test [5]. Also, the TGI in test [6] is > 100 µM.

For the molecule `CCn1c(-c2ccc(OC(C)=O)cc2)c(C)c2cc(OC(C)=O)ccc21`, the TGI in [7] was determined as 88.8 µM; in test [8], 50.2 µM; in test [1], 26.2 µM; in test [9], 54.4 µM; in [2], 42.9 µM; in test [5] it was 43.5 µM. The TGI in test [6] was determined as 57.4 µM.

In the case of `O=C(c1ccccc1)C1OC12C(=O)Nc1ccccc12` (stereo not drawn), the TGI in test [8] was 42.2 µM; in test [2] it was 9.73 µM; in test [3], > 100 µM; in test [4], 88.8 µM; in test [5], 57.4 µM; in test [6] it was 89.4 µM.

Turning to `O=C(/C=C\c1ccc(NCc2ccc(C(=O)O)cc2)cc1)CCl`, the GI50 in test [7] is 7950 nM; in test [8] it was 13400 nM; in test [1] it was 13.9 µM; in test [9], 15.7 µM; in test [2], 14800 nM; in test [5], 15.5 µM. Besides, the GI50 in test [6] was 15500 nM. The TGI was determined as 21.5 µM in test [7]; 26.3 µM in [8]; 27 µM in test [1]; 45.6 µM in test [9]; 36.7 µM in [2]; 29.3 µM in test [5]. Also, in [6], the TGI is 31 µM.

For the molecule `CC1=CC(C/C(C)=C/COc2ccc3ccc(=O)oc3c2)OC1=O` (stereo not drawn), the TGI in test [7], in [8], in [1], in test [9], in test [2] and in [5] was > 100 µM in each case. Further, the TGI in test [6] is > 100 µM.
